Results published in US5399565A, “Pyrazolidinone CCK and gastrin antagonists and pharmaceutical formulations therof” (priority 1993, dated 1995).

Columns and labels:
[1] = molecular target: T1, peripheral type CCK receptors in rat pancreas (Rattus norvegicus, UniProt P30551); experiment: Binding to peripheral type CCK receptors in rat pancreas (3H-L-364,718); details: for inhibition at 10 µM: read-out: Pancreas Percent Inhibition; for IC50: rat pancreas
T1 construct: Pancreas was obtained from male Sprague-Dawley rats; from tissue; host or cells: pancreas membranes of male Sprague-Dawley rats
T1 sequence (P30551 1-444): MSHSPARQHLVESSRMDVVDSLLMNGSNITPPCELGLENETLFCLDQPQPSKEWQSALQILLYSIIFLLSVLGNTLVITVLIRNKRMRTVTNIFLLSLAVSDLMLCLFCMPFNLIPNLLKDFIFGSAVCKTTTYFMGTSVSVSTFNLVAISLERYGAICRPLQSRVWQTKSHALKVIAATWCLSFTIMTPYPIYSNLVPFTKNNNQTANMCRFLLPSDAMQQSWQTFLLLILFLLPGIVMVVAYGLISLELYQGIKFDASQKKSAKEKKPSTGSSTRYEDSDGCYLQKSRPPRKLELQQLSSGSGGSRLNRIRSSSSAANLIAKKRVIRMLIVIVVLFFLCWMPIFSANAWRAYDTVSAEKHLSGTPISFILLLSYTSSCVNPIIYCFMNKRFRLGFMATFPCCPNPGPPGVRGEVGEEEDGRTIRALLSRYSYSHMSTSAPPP
In short: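 Washed pancreatic membranes from male Sprague-Dawley rats (150-200 g) incubated 1 h at room temperature with 0.4-0.6 nM ³H-L-364,718 in 50 mM Tris pH 7.4, 5 mM MgCl2, bacitracin, 5 mM DTT. Bound radioactivity counted after filtration; nonspecific binding defined with 100 nM L-364,718; IC50 determined.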

pKa by titration = details: for pKa: 2:1 dmf:h2o, titration pKa
brain CCK receptor = molecular target: T2, brain CCK receptor (Mus musculus, UniProt P56481); experiment: CCK receptor binding, mouse brain membranes (125I-CCK-8 sulfate); details: for IC50: mouse brain membranes, read-out: Brain IC50; for inhibition at 10 µM: read-out: Brain Percent Inhibition
T2 construct: from tissue; host or cells: forebrain membranes of male CF-1 mice
T2 sequence (P56481 1-453): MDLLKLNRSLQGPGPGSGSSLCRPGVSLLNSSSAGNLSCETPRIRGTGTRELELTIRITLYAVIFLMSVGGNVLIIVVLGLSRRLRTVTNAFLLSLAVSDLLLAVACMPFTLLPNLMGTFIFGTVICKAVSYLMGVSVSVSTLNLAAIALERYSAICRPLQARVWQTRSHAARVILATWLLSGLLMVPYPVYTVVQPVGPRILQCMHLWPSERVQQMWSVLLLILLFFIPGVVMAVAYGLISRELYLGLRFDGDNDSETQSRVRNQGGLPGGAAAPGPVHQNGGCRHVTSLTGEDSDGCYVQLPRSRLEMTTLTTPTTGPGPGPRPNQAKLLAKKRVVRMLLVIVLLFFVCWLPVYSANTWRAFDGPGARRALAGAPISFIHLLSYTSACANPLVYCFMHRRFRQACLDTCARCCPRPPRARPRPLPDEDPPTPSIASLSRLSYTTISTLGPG

gastrin receptor = molecular target: T3, gastrin receptor (Cavia porcellus, UniProt H0VZC5); experiment: Gastrin binding to guinea pig stomach mucosal membranes (125I-gastrin I); details: guinea pig stomach mucosal membranes; read-out: Gastrin IC50
T3 construct: Guinea pig stomach fundus was obtained from male Hartley guinea pigs; from tissue; host or cells: stomach fundus mucosal membranes of male Hartley guinea pigs
T3 sequence (H0VZC5 1-426): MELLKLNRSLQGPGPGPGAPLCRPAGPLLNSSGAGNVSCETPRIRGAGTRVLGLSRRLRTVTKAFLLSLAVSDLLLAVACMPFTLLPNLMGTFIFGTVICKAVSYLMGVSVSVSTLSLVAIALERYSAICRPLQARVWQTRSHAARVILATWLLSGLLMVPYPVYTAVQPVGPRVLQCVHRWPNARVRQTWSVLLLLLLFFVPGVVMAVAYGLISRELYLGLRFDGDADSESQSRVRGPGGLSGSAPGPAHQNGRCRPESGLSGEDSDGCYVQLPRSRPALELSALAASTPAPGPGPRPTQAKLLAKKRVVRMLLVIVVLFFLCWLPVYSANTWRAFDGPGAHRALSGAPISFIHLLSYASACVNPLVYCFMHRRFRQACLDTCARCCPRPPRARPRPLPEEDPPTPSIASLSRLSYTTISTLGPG
Method: The method used for gastrin binding to guinea pig stomach mucosal membranes was similar to that described by Takeuchi, Speir and Johnson (Am. J. Physiol. 237(3): E284-E294, 1979). Guinea pig stomach fundus was obtained from male Hartley guinea pigs, 300-350 g, and the mucosa was scraped off with a glass slide. The mucosa was homogenized in 50 mM Tris buffer, pH 7.4, containing 1 mM phenylmethanesulfonyl fluoride using a Dounce glass homogenizer, and the suspension was centrifuged at 40,000 g for 10 min. The resulting pellet was resuspended and centrifuged once more, the final pellet was then suspended in 100 ml assay buffer per 1 guinea pig stomach to give a protein concentration of 200-300 μg/200 μl. The assay buffer consisted of 50 mM Tris buffer, pH 7.4, 5 mM MgCl2, 0.14 mg/ml bacitracin, and 1 μg/ml each of leupeptin, chymostatin, aprotinin and pepstatin. Reagent volumes for the assay were the same as those used for CCK binding to brain membranes. The radioactive ligand was 20 pM ^125 I-gastrin I, from DuPont NEN (NEX-176). The samples were incubated 3 hours at room temperature and filtered and counted as described for CCK binding to brain membranes. Compound samples were prepared and IC-50 values were determined as described for the CCK-brain receptor binding. Non-specific binding was determined using 100 nM gastrin I (human synthetic from Sigma Chemical Co.).

inhibition at 10 µM ([1]; at 10 μM)	pKa (pKa by titration; first or only value)	IC50 (brain CCK receptor)	IC50 (gastrin receptor)	Compound	also measured
60%	6.75	2600 nM		O=C1NN(C(=O)c2cc3ccccc3[nH]2)[C@@H](c2ccccc2)[C@@H]1c1ccccc1 (relative stereo) [Example 14, 1-(Indole-2-carbonyl)-4,5-diphenyl-3-pyrazolidinone]	
14%	4	290 nM		CN(C)c1ccc(NC(=O)N2NC(=O)[C@@H](c3ccccc3)[C@@H]2c2ccccc2)cc1 (relative stereo) [Example 2, 1-[(4-N,N-Dimethylaminophenyl)aminocarbonyl]-4,5-diphenyl-3-pyrazolidinone]	pKa (pKa by titration; second value): 7.9
34%	7.7	54 nM	1100 nM	O=C1NN(C(=O)Nc2ccc(OCc3ccccc3)cc2)[C@@H](c2ccccc2)[C@@H]1c1ccccc1 (relative stereo) [Example 3, 1-[(4-Benzyloxyphenyl)aminocarbonyl]-4,5-diphenyl-3-pyrazolidinone]	
33%	6.6	3700 nM		O=C1NN(c2nc3ccc(Cl)cc3s2)[C@@H](c2ccccc2)[C@@H]1c1ccccc1 (relative stereo) [Example 9, 1-[6-Chloro-2-benzothiazolyl]-4,5-diphenyl-3-pyrazolidinone]	
	8.7			C[C@@H](OC(=O)N1NC(=O)[C@@H](c2ccccc2)[C@@H]1c1ccccc1)c1ccccc1 (single isomer, unassigned) [Example 139A]	
81%	8.4	1100 nM		O=C1NN(C(=O)NCc2ccc(Cl)c(Cl)c2)[C@@H](c2ccccc2)[C@@H]1c1ccccc1 (relative stereo) [Example 7, 1-[(3,4-Dichlorobenzyl)aminocarbonyl]-4,5-diphenyl-3pyrazolidinone]	
	5.8			O=C1NN(C(=S)Nc2ccc3ccccc3c2)[C@@H](c2ccccc2)[C@@H]1c1ccccc1 (relative stereo) [Example 136, 1-[(2-Naphthyl)aminothiocarbonyl]-4,5-diphenyl-3-pyrazolidinone]	IC50 [1]: 160 nM
18%	7.15			O=C1NN(C(=O)c2cccc(C(F)(F)F)c2)[C@@H](c2ccccc2)[C@@H]1c1ccccc1 (relative stereo) [Example 5]	inhibition at 10 µM (brain CCK receptor): 77%
15%	7.8	4400 nM		O=C1NN(C(=O)Oc2ccc(Cl)cc2)[C@@H](c2ccccc2)[C@@H]1c1ccccc1 (relative stereo) [Example 6, 1-[(4-Chlorophenyl)oxycarbonyl]-4,5-diphenyl-3pyrazolidinone]	
4%	4.5			Nc1ccc(NC(=O)N2NC(=O)[C@@H](c3ccccc3)[C@@H]2c2ccccc2)cc1 (relative stereo) [Example 10, 1-[(4-Aminophenyl)aminocarbonyl]-4,5-diphenyl-3-pyrazolidinone]	pKa (pKa by titration; second value): 8.1; inhibition at 10 µM (brain CCK receptor): 57%
				C[C@@H](OC(=O)N1NC(=O)[C@@H](c2ccccc2)[C@@H]1c1ccccc1)c1ccccc1 (single isomer, unassigned) [Example 139B]	titration pKa (pKa by titration; 2:1 DMF:H2O, first or only value, listed as Diastereomer B): 8.6
59%		11 nM	210 nM	O=C1NN(C(=O)Nc2ccc(Br)cc2)C(c2ccccc2)C1c1cccc(Cl)c1 (stereo not shown) [Example 126]	
		7 nM	130 nM	O=C1NN(C(=O)Nc2ccc(C(F)(F)F)cc2)C(c2ccccc2Cl)C1c1ccccc1 (stereo not shown) [Example 110]	Pancreas Percent Inhibition ([1]; at 10 μM): 47%
		42 nM	210 nM	O=C1NN(C(=O)Nc2ccc(Cl)c(Cl)c2)[C@H](c2ccccc2)[C@H]1c1ccccc1 (relative stereo) [Example 46]	IC50 [1]: 1200 nM
88%		64 nM	160 nM	O=C1NN(C(=O)Nc2cnc3ccccc3c2)[C@@H](c2ccccc2)[C@@H]1c1ccccc1 (relative stereo) [Example 92]	
53%		56 nM	240 nM	CSc1ccc(NC(=O)N2NC(=O)[C@@H](c3ccccc3)[C@@H]2c2ccccc2)cc1 (relative stereo) [Example 38]	
